Data reported in patent US20190321493A1, “MATERIALS AND METHODS FOR TREATING REGIONAL PAIN” (priority 2016, published 2019).

Assays:
[1] = Drug distribution in DRG after convection enhanced delivery of DAPI; format: in vivo, swine; details: FIG. 5
From the text: FIGS. 5A-5C illustrate drug distribution in swine DRG. […] is a schematic of convection enhanced delivery (CED) needle placement in a DRG. FIG. 5B contains an image of a control DRG. FIG. 5C contains an image of a 4′,6-diamidino-2-phenylindole (DAPI) injected DRG.
An incision was made in the overlying skin at an anatomical level affected by pain in a patient. The subcutaneous fat and musculature were incised and reflected, exposing the bony lamina. Using appropriate instruments, a portion of the lamina was removed to expose the neural elements. The meningeal sleeve surrounding the DRG and spinal nerve was surgically exposed by microdissection of bone and tissue, which may require extending the laminectomy dissection, using standard techniques such as blunt or sharp dissection with meticulous hemostasis. Thereby the DRG was exposed and grossly visualized. A convection enhanced delivery needle was placed into the exposed DRG. RTXcap was injected in a preparation that also contains a contrast agent (e.g., in this case DAPI) allowing direct visualization of analgesic agent injection by eye sight with or without a surgical loupe or surgical operating microscope.

[2] = test system: nociceptive neurons of the dorsal root ganglion (DRG); assay: MRI-guided intraganglionic injection of RTX (RTXcap) with gadoteridol into swine DRG, substance P immunohistochemistry; format: in vivo
From the text: FIGS. 1A-1D are fluorescent immunohistochemistry (IHC) images. […] Nociceptive fibers in all panels are visualized using the biomarker substance P (sP).
FIGS. 2A-2C are fluorescent IHC images of a DRG. […] The outcomes in FIG. 2B and FIG. 2C were predicted from intraprocedural imaging performed during RTX delivery (noted as a success (B) and failure (C) to achieve the intended contrast media dispersion).
Domestic swine were chosen because the porcine lumbar spinal column resembles the human lumbosacral anatomy. Swine were sedated with Telazol and Xylazine, intubated and kept under deep isoflurane inhalation anesthesia for the duration of the procedure titrated to effect. Swine were placed in an MRI scanner (GE 3T, GE Healthcare). Overview MRI imaging was obtained of the lumbosacral spine. DRG at the L4, L5, S1, and S2 level were outlined (FIG. 1A).
The guide needle was passed through the skin lateral to the midline and incrementally advanced ventromedially toward the DRG intraprocedural MRI imaging monitored advancement of the needle, and any deviations from the optimal trajectory were corrected. When the needle tip was visualized directly adjacent to the dorsal aspect of the DRG, the stylet of the guide needle was withdrawn. The stepped stylet was then inserted through the guide needle. The length of the stepped stylet exceeded the length of the guide needle and therefore only the stepped tip of the stylet but not the Quincke tip of the guide needle penetrated the DRG parenchyma. The stepped stylet was then withdrawn and replaced by the stepped needle. The prior insertion of the stepped stylet prevented clogging of the narrow needle tip. RTX 5 μg and gadoteridol 1% V/V was injected in a volume of 50 μl per DRG over a period of 5 minutes (RTX was solubilized in water with sulfobutyl ether β-cyclodextrin, designated as RTXcap). MRI imaging verified when the injection was successful and when the injection needed to be repeated (FIG. 4). Pigs were sacrificed 5 weeks post injection and the tissues harvested for histopathological analysis.

[3] = test system: nociceptive fibers in the dorsal horn of the spinal cord; assay: Periganglionic (epidural) injection of RTX, immunohistochemistry of spinal cord dorsal horn; format: in vivo, swine; details: FIG. 3B vs 3A

**Q.** Which “distribution in DRG” value [1] does the source give for N=C(N)c1ccc(-c2cc3ccc(C(=N)N)cc3[nH]2)cc1 [DAPI, 4′,6-diamidino-2-phenylindole] here?
**A.** good distribution throughout the DRG

**Q.** What does the source list for C=C(C)[C@]12C[C@@H](C)[C@@]34O[C@](Cc5ccccc5)(O[C@@H]1[C@@H]3C=C(COC(=O)Cc1ccc(O)c(OC)c1)C[C@]1(O)C(=O)C(C)=C[C@@H]41)O2 [RTX, resiniferatoxin]?
**A.** neurolysis of the targeted tissue ([2]; RTX 5 μg + gadoteridol 1% V/V, 50 μl per DRG, tissues 5 weeks post injection): can result in neurolysis of the targeted tissue; nociceptive neurons (sP fluorescence) in DRG ([2]; after failed image-guided injection, FIG. 2C): normal numbers of nociceptive neurons; nociceptive neurons (sP fluorescence) in DRG ([2]; after successful MRI-guided injection, FIG. 2B): elimination of most nociceptive neurons; nociceptive fibers (substance P) in the dorsal horn of the spinal cord ([2]; intraganglionic injection, RTX solubilized in water with sulfobutyl ether β-cyclodextrin, FIG. 1B vs 1A): elimination of nociceptive fibers; nociceptive fibers (substance P) in the dorsal root ganglion ([2]; intraganglionic injection, RTX solubilized in water with sulfobutyl ether β-cyclodextrin, FIG. 1D vs 1C): elimination of nociceptive fibers; nociceptive fibers in the dorsal horn of the spinal cord [3]: elimination of nociceptive fibers
